Article PMC8126241, “Active Components from Cassia abbreviata Prevent HIV-1 Entry by Distinct Mechanisms of Action” (International Journal of Molecular Sciences, 2021)
Read-outs that look alike come from different tables or passages of the source.

Columns and labels:
[1] = system: PBMCs; type: cell-based, human
Method: To assess drug cytotoxicity, PBMCs were incubated with or without drugs in a 96-well round bottom plate (Thermo Fisher, Asse, Belgium) at 2 × 10^5/200 μL/well. After 2 days, cells were washed with PBS and stained with 0.1 μL near-IR fluorescent reactive dye (Life technologies, Ghent, Belgium) in 100 μL PBS for 20 min at room temperature in dark. Stained cells were measured by flow cytometry (FACSCanto, BD biosciences, Belgium).

[2] = system: HIV-1 gp120 / CD4 binding; assay: CD4-gp120 interaction assay (ELISA); settings: in-house ELISA
Method: Human soluble CD4 (sCD4) was immobilized in a 96-well plate by adding 100 ng sCD4 (R&D Systems, Belgium) in 100 μL PBS per well and incubated at 4 °C. After 24 h, the CD4 coated plate was washed with 1% BSA-PBS and blocked by adding 100μL 5% BSA-PBS per well for 1 h at 4 °C. The coated plate was then washed and incubated with or without drugs for 1 h at 4 °C. After washing, 100 ng HIV-1 gp120 protein (Fitzgerald, Acton, MA, USA) was added into the plate and kept for 1 h at 4 °C. The plate was washed, and anti-HIV-1 gp120 (Aalto Bio Reagents, Dublin, Ireland) (100 ng/100 μL PBS) was added. After 1 h, the plate was washed and anti-sheep HRP (Sigma, Belgium) (100 ng/100 μL PBS) was added. After 1 h incubation at 4 °C, 100 μL o-phenylenediamine dihydrochloride (OPD) (Thermo Fisher, Asse, Belgium) was added and incubated for 20 min in dark. One hundred microliters 0.5M H2SO4 was finally added to stop the reaction. OD492 and OD630 were measured by POLARstart Omega Plate Reader. OD492 − OD630 was calculated.

[3] = system: Vesicular stomatitis virus; assay: microbe, parasite or virus in culture; type: cell-based
[4] = system: Influenza A/H3N2 A/HK/7/87; assay: Broad spectrum antiviral activity, MDCK cells; type: cell-based; settings: Influenza A virus
[5] = system: Influenza B B/Ned/537/05; assay: microbe, parasite or virus in culture; type: cell-based; settings: MDCK cells
[6] = system: Coxsackie virus B4; assay: Broad spectrum antiviral activity, HeLa cells; type: cell-based; settings: Enterovirus B
[7] = system: Reovirus-1; assay: Broad spectrum antiviral activity, vero cells; type: cell-based
[8] = system: Punta toro virus; assay: Broad spectrum antiviral activity, vero cells; type: cell-based
[9] = system: HIV-1 ADA-M; assay: Dual chamber transmission assay, HeLa upper chamber / TZM-bl lower chamber; type: cell-based; settings: dual-chamber system, at IC50 concentration
Method: Dual chamber transmission assay was performed as previously described. HeLa cells were seeded into an upper chamber of a transwell plate (Sigma-Aldrich, Liège, Belgium), while TZM-bl cells were seeded in the lower chamber. Trans Epithelial Electric Resistance (TEER) was measured using Millicell-ERS Volt-Ohm Meter. HIV-1 ADA-M (200 pg) and drugs were added to the upper chamber after 4 days when TEER reached 150 Ohm/cm^2. 24 h after infection luciferase value of TZM-bl cells lysate was measured using the Luciferase System Kit and the POLARstar Omega Plate Reader. Data were analyzed using GraphPrism. The HIV-1 DC-SIGN transmission assay was performed as previously described.

[10] = system: non-B HIV-1 primary clinical isolate #1; assay: microbe, parasite or virus in culture; settings: Human immunodeficiency virus 1, PBMC, 168 h, read-out: IC50 non-B HIV-1 primary clinical isolate (first named)

SMILES: Oc1cc(O)cc(/C=C/c2ccc(O)c(O)c2)c1 [piceatannol, trans-3,3′,4,5′-tetrahydroxystilbene]
- Cytotoxicity in PBMCs [1]: not cytotoxic
- Inhibition of gp120/CD4 binding [2]: did not
- IC50 [3]: 79.2 ± 17 µM
- IC50 ([3]; Vesicular stomatitis virus, U-87 MG): 79.2 ± 17.2 µM
- IC50 [4]: > 100 µM
- IC50 [5]: > 100 µM
- IC50 [6]: > 100 µM
- IC50 [7]: > 100 µM
- IC50 [8]: > 100 µM
- Decrease of HIV-1 infection [9]: 33%
- HIV-1 infection of TZM-Bl cells relative to control (100) ([9]; 24 h post-infection): 66.9%
- IC50 [10]: 37.7 ± 12.5 µM
